Source: article PMC11207040, “Synthesis and Biological Studies of New Temporin A Analogs Containing Unnatural Amino Acids in Position 7” (Pharmaceutics, 2024)
Read-outs that look alike come from different tables or passages of the source. Non-standard residues stand in square brackets, D forms with d. Residues, ends and D or L forms follow the SMILES beside them. Dab = NCC[C@H](N)C(=O)O

Legend:
[1] = 3T3 NRU cytotoxicity/phototoxicity test; type: cell-based, mouse; details: mouse; for CC50: cytotoxicity, no irradiation, BALB 3T3 clone A31, Neutral Red uptake, read-out: Mean CC50 ± SD, −Irr; for CC50 at 24 h: phototoxicity, irradiated 2.4 J/cm^2, BALB 3T3 clone A31, Neutral Red uptake, read-out: Mean CC50 ± SD, +Irr
Protocol: (§1) The cell lines BALB 3T3 (mouse embryonic fibroblasts) and MCF-12F (human breast epithelial cells) were used as models for healthy tissue. The MCF-7 and MDA-MB-231 cell lines were used as in vitro models for luminal A- and basal B-type breast cancer, respectively. Cell lines were obtained from the American Type Cultures Collection (ATCC, Manassas, VA, USA). Cells were cultured in Dulbecco modified Eagle’s medium (DMEM) supplemented with 10% fetal bovine serum (FBS), 100 U/mL penicillin, and 0.1 mg/mL streptomycin (Sigma-Aldrich, Schnelldorf, Germany) in an incubator at 37 °C, 5% CO2 and 95% humidity. Plastic flasks 75 cm^2 (Biologix, Lenexa, KS, USA) were used to grow the cells.
(§2) The cytotoxicity/phototoxicity testing was performed as described by the OECD Guidelines for the Testing of Chemicals, Section 4, Test No. 432: In Vitro 3T3 NRU Phototoxicity Test. BALB 3T3, clone A31 cells were grown in 75 cm^2 tissue culture flasks in DMEM high-glucose (4.5 g/L), 10% FBS, and antibiotics at 37.5 °C, in a humidified atmosphere under 5% CO2. Cells were plated at 1 × 10^4 cells / 100 μL culture medium in each well of 96-well microplates and allowed to adhere for 24 h before treatment with test compounds. Peptides were dissolved in DMSO and diluted with culture medium to working concentrations from 4 to 1000 μM. In phototoxicity tests, 96-well plates were irradiated (+Irr) with a dose of 2.4 J/cm^2 using an artificial solar light simulator Helios-iO (SERIC Ltd., Tokyo, Japan), and the cells were incubated for an additional 24 h. After treatment with a Neutral Red medium, washing, and application of the NR Desorb solution, the absorption was measured on a microplate reader at a wavelength of 540 nm. Cytotoxicity/phototoxicity was expressed as CC50 values (concentrations required for 50% cytotoxicity).

BALB 3T3 clone A31 cells = test: 3T3 NRU cytotoxicity/phototoxicity test; type: cell-based, mouse; details: PIF = CC50 −Irr/CC50 +Irr; PIF < 2 = not phototoxic
Protocol: as §1, §2

MCF-12F cells = test: MTT antiproliferative assay, MCF-12F; type: cell-based, human; details: 72 h, non-tumorigenic cell line, read-out: Mean IC50 ± SD, MCF-12F
Protocol: as §1
(§3) The antiproliferative activity testing was performed on cell cultures using the MTT-dye reduction assay. This assay is based on the metabolism of MTT to insoluble formazan by mitochondrial reductases. The formazan concentration can be determined spectrophotometrically. The measured absorption is an indicator of cell viability. Cell lines (MCF-12F, MCF-7 and MDA-MB-231) were used in the experiments. Cells were plated at a density of 1 × 10^3 cells/100 µL in each well of 96-well microplates and allowed to adhere for 24 h before treatment with test compounds. A concentration range from 4 to 1000 μM was applied for 72 h. The formazan absorption was registered using a microplate reader at λ = 540 nm. Antiproliferative activities were expressed as IC50 values (concentrations required for 50% inhibition of cell growth).

MCF-7 cells = test: MTT antiproliferative assay, MCF-7; type: cell-based, human; details: for IC50: MTT, 72 h, read-out: Mean IC50 ± SD, MCF-7; for SI (Selectivity Index), MCF-7: SI = IC50 MCF-12F/IC50 tumor cells
Protocol: as §1, §3

MDA-MB-231 cells = test: MTT antiproliferative assay, MDA-MB-231; type: cell-based, human; details: for IC50: MTT, 72 h, read-out: Mean IC50 ± SD, MDA-MB-231; for SI (Selectivity Index), MDA-MB-231: SI = IC50 MCF-12F/IC50 tumor cells
Protocol: as §1, §3

[2] = system: Arthrobacter oxydans NBIMCC 9333; type: cell-based; details: for Inhibition effect, A. oxydans 9333: zone of peptide over zone of antibiotic x 100; for Inhibition zone, A. oxydans 9333: 20 µL per disc, 24 h
Protocol: (§4) The parent peptide Temporin A and the novel analogs were subjected to tests against model strains Escherichia coli NBIMCC 8785, Bacillus subtilis NBIMCC 3562, Arthrobacter oxydans NBIMCC 9333, Pseudomonas aeruginosa NBIMCC 3700, and Candida albicans NBIMCC 74, for the assessment of their antimicrobial activity. The strains were acquired from the National Bank for Industrial Microorganisms and Cell Cultures (NBIMCC, Bulgaria). The strain E. coli 8785 was cultured in Luria-Bertani broth (LB, HiMedia, Mumbai, India); B. subtilis 3562—in nutrient broth (NB, HiMedia, Mumbai, India); A. oxydans 9333; P. aeruginosa 3700—in meat peptone agar (MPA) medium; and C. albicans 74—in yeast mold (YM) medium. An incubator shaker ES-20/60 (Biosan, Latvia) was used for the cultivation and was set to 30 °C for B. subtilis 3562, A. oxydans 9333, and C. albicans 74; and 37 °C for E. coli 8785 and P. aeruginosa 3700, with a 24 h shaking period at 120 rpm. The microbial cultures were then adjusted to a turbidity of 0.5 McFarland using a Grant-bio DEN-1B densitometer (Grant Instruments, Royston, UK) for further use.
(§5) The disk-diffusion method was used as an additional method, with the aim of determining the percent inhibition of the tested samples against the model strains. Sterile plates with LB/NB/MPA/YM agar medium were inoculated on the surface with 100 μL from each microbial culture and incubated at 30 or 37 °C for 30 min, for the suspension to penetrate the agar. After that, sterile paper discs (HiMedia, Mumbai, India) with a diameter of 6 mm were soaked with 20 µL of the peptide solutions with concentrations of 1.4 mg/mL and 10 mg/mL and placed on the agar surface. Sterile paper discs with 10% EtOH/H2O were used as a negative control, and the corresponding strain antibiotic disks (HiMedia, Mumbai, India)—as a positive control. The incubation of the plate was performed at 30/37 °C for 24 h. The antimicrobial activity was analyzed by measuring the diameter of the inhibition zones in mm. The experiments were conducted in triplicates, and the average values for the percent of inhibition as a correlation between the inhibition zone of the peptides over the inhibition zone of the antibiotic multiplied by 100 were calculated.

[3] = system: Bacillus subtilis NBIMCC 3562; type: cell-based; details: for Inhibition effect, B. subtilis 3562: zone of peptide over zone of antibiotic x 100; for Inhibition zone, B. subtilis 3562: 20 µL per disc, 24 h
Protocol: as §4, §5

[4] = system: Candida albicans NBIMCC 74; type: cell-based; details: 20 µL per disc, 24 h
Protocol: as §4, §5

[5] = system: Escherichia coli NBIMCC 8785; type: cell-based; details: 20 µL per disc, 24 h
Protocol: as §4, §5

[6] = system: Pseudomonas aeruginosa NBIMCC 3700; type: cell-based; details: for Inhibition effect, P. aeruginosa 3700: zone of peptide over zone of antibiotic x 100; for Inhibition zone, P. aeruginosa 3700: 20 µL per disc, 24 h
Protocol: as §4, §5

CC[C@H](C)[C@H](NC(=O)CNC(=O)[C@H](CO)NC(=O)[C@H](CC(C)C)NC(=O)[C@@H](NC(=O)[C@H](CCN)NC(=O)CNC(=O)[C@@H](NC(=O)[C@H](CC(C)C)NC(=O)[C@@H]1CCCN1C(=O)[C@H](CC(C)C)NC(=O)[C@@H](N)Cc1ccccc1)[C@@H](C)CC)C(C)C)C(=O)N[C@@H](CC(C)C)C(N)=O [DTDab, FLPLIG-Dab-VLSGIL-NH2] (H-FLPLIG[Dab]VLSGIL-NH2; N-terminus assumed)
CC50 [1]: 210 ± 6.69 µM | CC50 at 24 h [1]: 207 ± 7.41 µM | PIF (photo irritation factor) (BALB 3T3 clone A31 cells): 1.01 | IC50 (MCF-12F cells): 280 ± 13.6 µM | IC50 (MCF-7 cells): 157 ± 4.97 µM | SI (Selectivity Index), MCF-7 (MCF-7 cells): 1.78 | IC50 (MDA-MB-231 cells): 174.9 ± 1.35 µM | SI (Selectivity Index), MDA-MB-231 (MDA-MB-231 cells): 1.60 | Inhibition effect, A. oxydans 9333 ([2]; 1.4 mg/mL): 43.2% | Inhibition effect, A. oxydans 9333 ([2]; 10 mg/mL): 76.3% | Inhibition zone, A. oxydans 9333 ([2]; peptide 1.4 mg/mL): 8.2 ± 0.3 mm | Inhibition zone, A. oxydans 9333 ([2]; peptide 10 mg/mL): 14.5 ± 0.5 mm | Inhibition effect, B. subtilis 3562 ([3]; 1.4 mg/mL): 0.0% | Inhibition effect, B. subtilis 3562 ([3]; 10 mg/mL): 45.2% | Inhibition zone, B. subtilis 3562 ([3]; peptide 1.4 mg/mL): 0.0 mm | Inhibition zone, B. subtilis 3562 ([3]; peptide 10 mg/mL): 11.3 ± 0.6 mm | Inhibition zone, C. albicans 74 ([4]; peptide 1.4 mg/mL): 0.0 mm | Inhibition zone, C. albicans 74 ([4]; peptide 10 mg/mL): 0.0 mm | Inhibition zone, E. coli 8785 ([5]; peptide 1.4 mg/mL): 0.0 mm | Inhibition zone, E. coli 8785 ([5]; peptide 10 mg/mL): 0.0 mm | Inhibition effect, P. aeruginosa 3700 ([6]; 1.4 mg/mL): 48.1% | Inhibition effect, P. aeruginosa 3700 ([6]; 10 mg/mL): 89.4% | Inhibition zone, P. aeruginosa 3700 ([6]; peptide 1.4 mg/mL): 7.7 ± 0.6 mm | Inhibition zone, P. aeruginosa 3700 ([6]; peptide 10 mg/mL): 14.3 ± 0.6 mm

CC[C@H](C)[C@H](NC(=O)CNC(=O)[C@H](CO)NC(=O)[C@H](CC(C)C)NC(=O)[C@@H](NC(=O)[C@H](CCCCN)NC(=O)CNC(=O)[C@@H](NC(=O)[C@H](CC(C)C)NC(=O)[C@@H]1CCCN1C(=O)[C@H](CC(C)C)NC(=O)[C@@H](N)Cc1ccccc1)[C@@H](C)CC)C(C)C)C(=O)N[C@@H](CC(C)C)C(N)=O [DTF, FLPLIG-K-VLSGIL-NH2, reference compound] (H-FLPLIGKVLSGIL-NH2)
CC50 [1]: 92.4 ± 2.82 µM | CC50 at 24 h [1]: 88.4 ± 1.48 µM | PIF (photo irritation factor) (BALB 3T3 clone A31 cells): 1.05 | IC50 (MCF-12F cells): 100 ± 3.3 µM | IC50 (MCF-7 cells): 49.8 ± 1.9 µM | SI (Selectivity Index), MCF-7 (MCF-7 cells): 2.02 | IC50 (MDA-MB-231 cells): 77 ± 2.92 µM | SI (Selectivity Index), MDA-MB-231 (MDA-MB-231 cells): 1.30 | Inhibition effect, A. oxydans 9333 ([2]; 1.4 mg/mL): 33.5% | Inhibition effect, A. oxydans 9333 ([2]; 10 mg/mL): 57.5% | Inhibition zone, A. oxydans 9333 ([2]; peptide 1.4 mg/mL): 6.7 ± 0.3 mm | Inhibition zone, A. oxydans 9333 ([2]; peptide 10 mg/mL): 11.5 ± 0.5 mm | Inhibition effect, B. subtilis 3562 ([3]; 1.4 mg/mL): 34.0% | Inhibition effect, B. subtilis 3562 ([3]; 10 mg/mL): 50.8% | Inhibition zone, B. subtilis 3562 ([3]; peptide 1.4 mg/mL): 8.5 ± 0.5 mm | Inhibition zone, B. subtilis 3562 ([3]; peptide 10 mg/mL): 12.7 ± 0.6 mm | Inhibition zone, C. albicans 74 ([4]; peptide 1.4 mg/mL): 0.0 mm | Inhibition zone, C. albicans 74 ([4]; peptide 10 mg/mL): 0.0 mm | Inhibition zone, E. coli 8785 ([5]; peptide 1.4 mg/mL): 0.0 mm | Inhibition zone, E. coli 8785 ([5]; peptide 10 mg/mL): 0.0 mm | Inhibition effect, P. aeruginosa 3700 ([6]; 1.4 mg/mL): 43.8% | Inhibition effect, P. aeruginosa 3700 ([6]; 10 mg/mL): 64.4% | Inhibition zone, P. aeruginosa 3700 ([6]; peptide 1.4 mg/mL): 7.0 ± 0.5 mm | Inhibition zone, P. aeruginosa 3700 ([6]; peptide 10 mg/mL): 10.3 ± 0.8 mm
